Laboratory results from patent US20100041751A1, “Method to Reduce Oxidative Damage and Improve Mitochondrial Efficiency” (ACCERA, INC., priority 2005, published 2010).
Entries after “also recorded” stand apart in the source; their conditions may differ. Read-outs that look alike come from different tables or passages of the source.

Legend:
[1] = cited from earlier work; for amount that will dissolve in water: in 1 liter of water at 20° C.
MPTP treated mice = assay: MPTP mouse model of Parkinson's disease; assay type: in vivo, C57BL mice
Procedure: 8- to 10-week-old male C57BL mice will be divided into four groups: control, MPTP treated plus dextrose, and MPTP treated plus MCT. In dextrose treated pups, 0.5 g/kg of dextrose will be administered by oral gavage 2 to 4 hours before MPTP treatment. In MCT treated pups, 0.5 g/kg of MCTs will be administered by oral gavage 2 to 4 hours before MPTP treatment. Each mouse will then be randomly assigned to receive four intraperitoneal injections of either MPTP (18 mg/kg of free base in saline) or saline at 2-hour intervals. Mice will subsequently be tested for motor performance on a rotarod. The rotarod will consist of four rotating rods of 3 cm diameter in separated compartments. Seven days after MPTP or saline injections the mice will be first pretrained three times (1 hour apart) using an accelerating mode. After the training sessions, the time on the rod will be recorded for successive rotational speeds, and the overall rod performance (ORP) for each mouse calculated.
Seven days after the last MPTP injection, mice will be killed and their brain tissue processed for immunohistochemical studies to examine levels of oxidative stress and effects of MPTP treatment. Cell fractions from the biopsied tissue will be frozen and analyzed for oxidative damage using markers of peroxynitrite, lipid peroxidation and 3-nitrotyrosine. […] In addition mitochondria will be isolated from each group and examined for mitochondrial efficiency.

[2] = Serum beta-hydroxybutyrate (BHB) levels in aged beagle dogs fed MCTs; assay type: in vivo
Procedure: Reducing oxidative damage and improving mitochondrial efficiency. Two groups of aged beagle dogs were tested for the effects of feeding MCT on oxidative damage and mitochondrial efficiency. The first group was maintained on MCTs (2 g/kg/day) and the second group on placebo control over a 2-month period. Blood samples were taken over 5 time points to monitor levels of the ketone body, beta-hydroxybutyrate (BHB). After two months of treatment, the dogs were anaesthetized and brain biopsies were collected for mitochondrial analysis. The animals were then euthanized and brain tissue was harvested for further analysis of mitochondrial function and protein levels.
The eight subjects (8-11 years) were divided into two equal sized groups, matched for age and sex. The first group was administered 2 g/kg/day of MCTs, which was added to their maintenance diet, and the other received only the maintenance diet. The test substance was manually added to the dog's normal chow and introduced over three days, such that one-third of the maximum dose was administered on the first day, two-thirds on the second day and the full dose on the third day. The subjects were maintained on the test substance over a two-month period. Blood samples for BHB analysis were taken on: Baseline (Day 0), Day 4, Day 14, Day 28, Biopsy/Euthanasia (Day 56 or 57).
Biopsy procedure. Approximately 30 minutes prior to surgery, a blood sample was taken for BHB analysis and then the animals were pre-medicated with acepromazine. Animals were induced using isoflurane (inhaled) via a facemask. The animal then were intubated and maintained in a deep plane of anaesthesia using isoflurane. […]
Serum BHB levels were assessed at five different time-points: (1) prior to treatment onset (T0), (2) after 4 days of treatment (T1), (3) after 14 days of treatment (T2), (4) after 28 days of treatment (T3), and (5) on the biopsy date (T4). The levels were analyzed using a repeated-measures ANOVA with time-point (T0 vs. T1 vs. T2 vs. T3 vs. T4) as a within-subject variable and group (control vs. MCT) as a between-subject variable.

[3] = tested on: brain tissue fractions (mitochondrial, P1, cytosolic); assay: Markers of oxidative damage in brain fractions of MCT-fed aged beagle dogs; assay type: in vivo; conditions: MCT vs control
Procedure: The remaining mitochondria were stored in 10% DMSO at −80° C. and assayed for UCP isoforms by western blot and quantification of oxidative damage in the mitochondrial, P1 and cytosolic fractions. Mitochondria from the biopsied tissue were frozen and analyzed for oxidative damage using markers of peroxynitrite, lipid peroxidation and 3-nitrotyrosine. Markers of Oxidative Damage. The markers of oxidative damage were analyzed using a repeated-measures ANOVA with region (frontal vs. parietal) and fraction (mitochondrial vs. P1 vs. cytosolic) as the within-subject variables and group (control vs. MCT) as the between-subject variable.

brain mitochondria = assay: Respiration assays on brain mitochondria isolated from biopsies of MCT-fed aged beagle dogs; assay type: in vivo; conditions: for respiratory control ratio (RCR), coupling of respiration with ATP production: state III / state IV respiration, treatment vs control
Procedure: On the day of biopsy, the treatment group was administered 2 g/kg of MCTs and the control group was administered an isocaloric solution of sucrose by an oral-gastric tube. Approximately two hours after dosing, the animals were anaesthetized and biopsies were taken from the frontal and parietal lobes. Immediately after removing the biopsy tissue, the animals were euthanized with an injectable euthanizing agent.
Using the biopsied material, brain mitochondria were isolated and the following parameters were assayed in real-time:
Mitochondrial Assays. Mitochondria were isolated using differential centrifugation and released from synaptosomes using a nitrogen cell disrupter (1000 psi for 5 minutes).
The respiration assays were conducted using standard polarography in a sealed, thermostated, stirred chamber containing a Clark-type electrode, which measures oxygen within the chamber. The system was calibrated with oxygen-saturated water, to standardize the quantification of oxygen consumption. The assays were conducted at 37° C.
Once the mitochondria were inserted into the Oxytherm, complex I driven respiration (state II respiration) was measured by adding pyruvate and malate (2.5 and 5 mM). Subsequently, 150 μM ADP was added to induce state III respiration, which measured the rate of active respiration. Oligomycin was added to inhibit ATP synthase and put the mitochondria into state IV respiration. To assess UCP activity, free fatty acids were added. FCCP then was added to completely uncouple the mitochondria by depolarizing the membrane potential, which caused maximum electron transport activity and maximum oxygen consumption. Finally, rotenone was added to inhibit complex I electron transport and succinate was added to measure maximum complex II-driven electron transport and oxygen consumption (complex II-driven respiration). The respiratory control ratio (RCR) was tabulated by dividing state III respiration rates by state IV respiration rates.
The respiration rates that were tabulated on-site were analyzed using repeated-measures ANOVAs. For each measure, brain region (frontal vs. parietal) was the within-subject variable and group (control vs. MCT) was the between-subject variable.

CCCCCC(=O)O [Caproic, caproic acid]
Solubility [1]: 9.7 grams of acid per liter | amount that will dissolve in water [1]: 9.7 grams

CCCCCCCCCCCC(=O)O [Lauric]
Solubility ([1]; water at 20° C.): 0.055 grams of acid per liter

CCCCCCCC(=O)OCC(COC(=O)CCCCCCC)OC(=O)CCCCCCC [MCTs, tri-C8:0 medium chain triglycerides]
motor performance on rotarod (MPTP treated mice; 0.5 g/kg MCTs oral gavage 2 to 4 hours before MPTP): lessen the decline in motor performance | signs of oxidative damage (MPTP treated mice; brain tissue seven days after last MPTP injection): fewer signs of oxidative damage | mitochondrial efficiency (MPTP treated mice; isolated mitochondria): improved mitochondrial efficiency | levels of serum BHB ([2]; aged beagle dogs, MCTs 2 g/kg/day for 2 months vs control): increased levels of serum BHB | Serum BHB levels at T4 ([2]; biopsy date (Day 56 or 57), MCT vs control, p=0.012): significantly higher | Serum BHB levels at T3 ([2]; day 28 of treatment, MCT vs control, p=0.041): significantly higher | Lipid oxidation, effect of group ([3]; frontal and parietal, mitochondrial, P1 and cytosolic fractions): no additional significant or marginally significant effects | signs of oxidative damage ([3]; peroxynitrite (protein oxidation), lipid oxidation and 3-nitrotyrosine): decreased signs of oxidative damage; also recorded: decrease oxidative damage | State III respiration (brain mitochondria; parietal and frontal cortices vs control, group effect p=0.008): more oxygen consumption per minute than the control group | State IV respiration (brain mitochondria; parietal and frontal cortices vs control, marginally significant p=0.067): slightly more oxygen consumption per minute than the control group | Uncoupling Protein (UCP) activity (brain mitochondria; parietal and frontal cortices vs control, marginally significant p=0.086): consumed more oxygen per minute than the control animals | improvement of mitochondrial function by brain region (brain mitochondria; parietal cortex vs frontal cortex): more effective at improving mitochondrial function in the parietal cortex than the frontal cortex | State II respiration (brain mitochondria; parietal cortex, oxygen consumption per minute per mg of tissue vs control, p=0.010): significantly less oxygen consumption | respiratory control ratio (RCR), coupling of respiration with ATP production (brain mitochondria): better coupling of respiration with ATP formation | respiratory control ratio (RCR), coupling of respiration with ATP production (brain mitochondria; listed as MCT): better coupled to ATP production | Complex I-driven respiration (maximum electron transport capacity) (brain mitochondria; vs control, group effect p=0.002): larger maximum electron transport activity than the control group | Complex II-driven respiration (brain mitochondria; vs control, region x group interaction p=0.047, listed as MCT): consumed more oxygen per minute than the control in the parietal cortex; also recorded: no difference

CCCCCCCCCCCCCC(=O)O [Myristic]
Solubility ([1]; water at 20° C.): 0.02 grams of acid per liter

CCCCCCCCCCCCCCCC(=O)O [Palmitic, palmitic acid]
amount that will dissolve in water [1]: 0.007 grams
